# From ChEMBL document CHEMBL1201862, “PubChem BioAssay data set” (2004)
# The source made the active and inactive calls.
# Experiments:
# Format in all cases: functional
# [1] = molecular target: Melanin-concentrating hormone receptor 1 (Homo sapiens, UniProt Q99705); assay: Late-stage fluorescence-based counterscreen for antagonists of the G-protein coupled receptor 7 (GPR7): cell-based dose response assay to identify antagonists of the melanin-concentrating hormone receptor 1 (MCHR1) Set 6.
# [2] = molecular target: Neuropeptides B/W receptor type 1 (Homo sapiens, UniProt P48145); assay: human NPBW1 receptor blockade, IC50 – cell-based, fluorescence, dose response, set 6, late-stage follow-up (AID 588583)
# [3] = molecular target: Interleukin-1 receptor-associated kinase 1 (Homo sapiens, UniProt P51617);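 further: IRAK1 tested as one member of a kinome panel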
# [4] = molecular target: Interleukin-1 receptor-associated kinase 4 (Homo sapiens, UniProt Q9NWZ3)
# [5] = molecular target: Homeodomain-interacting protein kinase 2 (Homo sapiens, UniProt Q9H2X6);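 further: measured within a kinome-wide kinase profiling panel, HIPK2 being one panel member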
# Homeodomain-interacting protein kinase 2, sequence (Q9H2X6 whole entry): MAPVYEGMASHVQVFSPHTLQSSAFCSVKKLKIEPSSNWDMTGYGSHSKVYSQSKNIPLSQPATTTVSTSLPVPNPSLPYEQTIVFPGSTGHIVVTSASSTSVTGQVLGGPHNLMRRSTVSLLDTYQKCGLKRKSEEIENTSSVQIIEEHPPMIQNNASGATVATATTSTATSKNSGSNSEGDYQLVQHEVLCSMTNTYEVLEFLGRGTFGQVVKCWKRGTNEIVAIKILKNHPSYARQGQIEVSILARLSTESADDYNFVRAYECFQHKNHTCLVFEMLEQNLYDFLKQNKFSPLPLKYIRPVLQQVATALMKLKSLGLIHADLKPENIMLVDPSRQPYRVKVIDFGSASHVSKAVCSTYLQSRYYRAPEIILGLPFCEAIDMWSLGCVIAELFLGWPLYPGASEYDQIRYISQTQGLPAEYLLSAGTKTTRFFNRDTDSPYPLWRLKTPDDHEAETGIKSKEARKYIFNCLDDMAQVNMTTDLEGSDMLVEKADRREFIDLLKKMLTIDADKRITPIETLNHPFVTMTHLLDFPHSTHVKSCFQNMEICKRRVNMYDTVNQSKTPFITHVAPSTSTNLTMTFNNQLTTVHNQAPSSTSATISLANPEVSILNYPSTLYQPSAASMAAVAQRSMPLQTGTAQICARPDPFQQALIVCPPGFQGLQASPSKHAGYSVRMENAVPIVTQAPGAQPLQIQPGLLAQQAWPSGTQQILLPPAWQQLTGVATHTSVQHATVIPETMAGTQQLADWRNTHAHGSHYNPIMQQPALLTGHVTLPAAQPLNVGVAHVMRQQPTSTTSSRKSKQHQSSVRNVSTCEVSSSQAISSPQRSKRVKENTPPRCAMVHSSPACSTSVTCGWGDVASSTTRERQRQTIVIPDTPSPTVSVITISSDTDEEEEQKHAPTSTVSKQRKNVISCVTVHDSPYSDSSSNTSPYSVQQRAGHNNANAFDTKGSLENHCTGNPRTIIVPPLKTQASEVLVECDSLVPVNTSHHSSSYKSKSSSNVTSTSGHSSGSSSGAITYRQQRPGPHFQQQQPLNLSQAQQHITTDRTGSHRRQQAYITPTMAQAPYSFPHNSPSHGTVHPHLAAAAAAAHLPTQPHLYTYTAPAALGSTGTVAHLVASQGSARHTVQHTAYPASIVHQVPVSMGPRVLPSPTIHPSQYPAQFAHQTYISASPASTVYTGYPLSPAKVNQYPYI
# [6] = molecular target: Cyclin-dependent kinase 7 (Homo sapiens, UniProt P50613);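 further: value comes from a kinome-wide kinase profiling panel in which CDK7 is one member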
# [7] = molecular target: Dual specificity mitogen-activated protein kinase kinase 1 (Homo sapiens, UniProt Q02750); assay: Navigating the Kinome. Panel member name: MAP2K1
# Dual specificity mitogen-activated protein kinase kinase 1, sequence (Q02750 whole entry): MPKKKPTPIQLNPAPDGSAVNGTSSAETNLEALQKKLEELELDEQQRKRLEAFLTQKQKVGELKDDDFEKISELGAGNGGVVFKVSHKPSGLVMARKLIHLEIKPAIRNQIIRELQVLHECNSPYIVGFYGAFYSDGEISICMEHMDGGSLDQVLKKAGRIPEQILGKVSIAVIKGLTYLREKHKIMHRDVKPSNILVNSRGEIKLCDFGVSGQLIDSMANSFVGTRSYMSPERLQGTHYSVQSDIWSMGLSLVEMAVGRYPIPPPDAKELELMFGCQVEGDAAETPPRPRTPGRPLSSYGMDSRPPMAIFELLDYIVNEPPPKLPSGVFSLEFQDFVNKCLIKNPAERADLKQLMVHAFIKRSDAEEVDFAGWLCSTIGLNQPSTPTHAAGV
# [8] = molecular target: RAC-gamma serine/threonine-protein kinase (Homo sapiens, UniProt Q9Y243)
# [9] = molecular target: Serine/threonine-protein kinase pim-2 (Homo sapiens, UniProt Q9P1W9);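 further: value comes from a broad kinase panel profiling study in which PIM2 was one of the panel members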
# [10] = molecular target: Tyrosine-protein kinase Fyn (Homo sapiens, UniProt P06241)
# [11] = molecular target: Proto-oncogene tyrosine-protein kinase ROS (Homo sapiens, UniProt P08922);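 further: ROS1 tested as one member of a kinome-wide kinase panel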
# [12] = molecular target: Receptor tyrosine-protein kinase erbB-4 (Homo sapiens, UniProt Q15303);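 further: ERBB4 member of a kinome-wide kinase profiling panel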
# [13] = molecular target: Calcium/calmodulin-dependent protein kinase type II subunit alpha (Homo sapiens, UniProt Q9UQM7); assay: Navigating the Kinome. Panel member name: CAMK2A
# [14] = molecular target: Testis-specific serine/threonine-protein kinase 2 (Homo sapiens, UniProt Q96PF2);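 further: part of the Navigating the Kinome panel, target entry STK22B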
# [15] = molecular target: Calcium/calmodulin-dependent protein kinase type II subunit beta (Homo sapiens, UniProt Q13554)
# [16] = molecular target: Platelet-derived growth factor receptor alpha (Homo sapiens, UniProt P16234); assay: Navigating the Kinome. Panel member name: PDGFRA
# [17] = molecular target: Dual specificity protein kinase CLK2 (Homo sapiens, UniProt P49760)
# [18] = molecular target: Serine/threonine-protein kinase MRCK alpha (Homo sapiens, UniProt Q5VT25)
# [19] = molecular target: Testis-specific serine/threonine-protein kinase 1 (Homo sapiens, UniProt Q9BXA7)
# [20] = molecular target: Phosphorylase b kinase gamma catalytic chain, liver/testis isoform (Homo sapiens, UniProt P15735);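 further: PHKG2 measured as one member of a kinome-wide kinase panel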
# [21] = molecular target: Tyrosine-protein kinase JAK3 (Homo sapiens, UniProt P52333)
# Tyrosine-protein kinase JAK3, sequence (P52333 whole entry): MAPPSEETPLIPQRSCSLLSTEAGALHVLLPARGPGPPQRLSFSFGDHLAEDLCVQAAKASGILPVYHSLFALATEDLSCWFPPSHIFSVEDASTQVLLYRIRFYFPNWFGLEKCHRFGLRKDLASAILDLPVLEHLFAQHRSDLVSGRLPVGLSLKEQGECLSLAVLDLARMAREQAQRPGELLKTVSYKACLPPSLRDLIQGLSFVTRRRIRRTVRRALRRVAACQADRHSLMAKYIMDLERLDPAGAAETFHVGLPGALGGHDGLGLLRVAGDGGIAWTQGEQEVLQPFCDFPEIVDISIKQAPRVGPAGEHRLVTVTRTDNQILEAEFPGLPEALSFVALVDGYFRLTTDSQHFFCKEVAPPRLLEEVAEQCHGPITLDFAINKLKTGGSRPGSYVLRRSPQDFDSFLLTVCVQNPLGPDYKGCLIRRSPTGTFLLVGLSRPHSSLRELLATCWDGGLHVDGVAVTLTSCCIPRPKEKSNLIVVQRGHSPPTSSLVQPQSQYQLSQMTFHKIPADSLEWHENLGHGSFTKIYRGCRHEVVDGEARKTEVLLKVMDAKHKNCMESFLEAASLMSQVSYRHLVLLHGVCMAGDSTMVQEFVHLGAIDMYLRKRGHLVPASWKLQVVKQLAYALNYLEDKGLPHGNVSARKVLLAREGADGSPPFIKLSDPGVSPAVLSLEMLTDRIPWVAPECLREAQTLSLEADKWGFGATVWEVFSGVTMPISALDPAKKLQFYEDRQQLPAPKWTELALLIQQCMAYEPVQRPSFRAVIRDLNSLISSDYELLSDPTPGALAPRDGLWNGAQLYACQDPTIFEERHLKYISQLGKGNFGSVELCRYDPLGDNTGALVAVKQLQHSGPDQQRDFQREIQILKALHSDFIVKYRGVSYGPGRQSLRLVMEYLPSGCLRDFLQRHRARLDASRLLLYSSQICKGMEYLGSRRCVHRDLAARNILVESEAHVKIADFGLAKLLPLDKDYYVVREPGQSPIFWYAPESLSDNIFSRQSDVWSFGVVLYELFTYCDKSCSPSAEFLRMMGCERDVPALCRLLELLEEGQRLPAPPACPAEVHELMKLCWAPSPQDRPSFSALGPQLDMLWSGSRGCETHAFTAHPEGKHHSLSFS
# [22] = molecular target: Mitogen-activated protein kinase 1 (Homo sapiens, UniProt P28482)
# [23] = molecular target: Casein kinase I isoform gamma-1 (Homo sapiens, UniProt Q9HCP0);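 further: measured as the CSNK1G1 member of a kinome profiling panel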
# [24] = molecular target: Calcium/calmodulin-dependent protein kinase kinase 2 (Homo sapiens, UniProt Q96RR4); assay: Navigating the Kinome. Panel member name: CAMKK2
# Focal adhesion kinase 1 = Focal adhesion kinase 1 (Homo sapiens, UniProt Q05397);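 further: measured as one member of a kinome panel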
# Focal adhesion kinase 1, sequence (Q05397 whole entry): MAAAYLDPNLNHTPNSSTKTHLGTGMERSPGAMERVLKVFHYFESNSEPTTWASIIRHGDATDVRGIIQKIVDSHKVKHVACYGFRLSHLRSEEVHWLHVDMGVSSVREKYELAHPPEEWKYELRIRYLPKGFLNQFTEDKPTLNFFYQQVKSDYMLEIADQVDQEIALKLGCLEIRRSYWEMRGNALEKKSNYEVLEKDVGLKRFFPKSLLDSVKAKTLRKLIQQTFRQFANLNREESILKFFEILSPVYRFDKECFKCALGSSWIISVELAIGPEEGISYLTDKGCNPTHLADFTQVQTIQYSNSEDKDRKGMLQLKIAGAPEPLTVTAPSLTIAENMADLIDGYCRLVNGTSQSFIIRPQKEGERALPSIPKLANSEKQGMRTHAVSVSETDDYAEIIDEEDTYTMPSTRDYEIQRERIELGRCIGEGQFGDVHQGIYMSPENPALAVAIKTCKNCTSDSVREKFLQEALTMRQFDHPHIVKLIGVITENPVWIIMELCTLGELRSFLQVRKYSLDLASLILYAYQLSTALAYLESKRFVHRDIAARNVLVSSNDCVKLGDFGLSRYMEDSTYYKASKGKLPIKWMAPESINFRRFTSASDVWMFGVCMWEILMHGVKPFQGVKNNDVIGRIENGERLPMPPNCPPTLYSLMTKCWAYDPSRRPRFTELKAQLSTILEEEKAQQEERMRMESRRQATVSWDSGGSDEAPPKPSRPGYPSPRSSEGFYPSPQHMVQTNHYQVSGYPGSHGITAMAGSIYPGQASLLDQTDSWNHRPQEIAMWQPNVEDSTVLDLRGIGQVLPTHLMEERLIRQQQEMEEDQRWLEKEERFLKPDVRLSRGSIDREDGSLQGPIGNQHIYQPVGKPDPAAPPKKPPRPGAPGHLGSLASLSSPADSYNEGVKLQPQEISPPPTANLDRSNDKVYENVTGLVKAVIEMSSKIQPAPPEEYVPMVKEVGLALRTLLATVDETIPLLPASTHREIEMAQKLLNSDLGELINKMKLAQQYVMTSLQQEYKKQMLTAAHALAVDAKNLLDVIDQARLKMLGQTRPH
# [25] = molecular target: Casein kinase II subunit alpha (Homo sapiens, UniProt P68400)
# [26] = molecular target: Homeodomain-interacting protein kinase 4 (Homo sapiens, UniProt Q8NE63)
# SRSF protein kinase 1 = SRSF protein kinase 1 (Homo sapiens, UniProt Q96SB4);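 further: measured as one member of a kinome-wide kinase profiling panel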
# [27] = molecular target: Cyclin-dependent kinase 9 (Homo sapiens, UniProt P50750);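 further: value from the CDK9 entry of a kinome-spanning kinase panel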
# Cyclin-dependent kinase 9, sequence (P50750 whole entry, canonical isoform): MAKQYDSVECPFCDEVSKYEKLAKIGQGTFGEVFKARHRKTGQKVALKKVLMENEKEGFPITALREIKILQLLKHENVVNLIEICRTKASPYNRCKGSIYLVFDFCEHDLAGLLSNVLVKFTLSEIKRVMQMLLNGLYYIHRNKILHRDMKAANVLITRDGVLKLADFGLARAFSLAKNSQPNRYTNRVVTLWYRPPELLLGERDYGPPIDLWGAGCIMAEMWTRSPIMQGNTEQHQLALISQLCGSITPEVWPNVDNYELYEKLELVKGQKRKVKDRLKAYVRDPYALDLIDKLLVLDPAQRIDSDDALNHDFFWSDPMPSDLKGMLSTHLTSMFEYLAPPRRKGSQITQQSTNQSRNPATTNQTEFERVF
# [28] = molecular target: Casein kinase I isoform delta (Homo sapiens, UniProt P48730);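 further: measured as one member (CSNK1D) of a kinome panel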
# [29] = molecular target: Calcium/calmodulin-dependent protein kinase type II subunit delta (Homo sapiens, UniProt Q13557)
# [30] = molecular target: Dual specificity tyrosine-phosphorylation-regulated kinase 1A (Homo sapiens, UniProt Q13627);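 further: measured against DYRK1A as one member of a broad kinome profiling panel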
# [31] = molecular target: Glycogen synthase kinase-3 alpha (Homo sapiens, UniProt P49840);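 further: GSK3A result taken from a broad kinome-wide kinase panel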
# [32] = molecular target: Cyclin-dependent kinase 19 (Homo sapiens, UniProt Q9BWU1); assay: Navigating the Kinome. Panel member name: CDC2L6
# [33] = molecular target: Mitogen-activated protein kinase 13 (Homo sapiens, UniProt O15264)
# [34] = molecular target: BDNF/NT-3 growth factors receptor (Homo sapiens, UniProt Q16620);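 further: NTRK2 measured as one member of a broad kinome-wide kinase profiling panel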
# [35] = molecular target: Serine/threonine-protein kinase 3 (Homo sapiens, UniProt Q13188);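 further: measured as one member of a kinome-wide kinase panel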
# [36] = molecular target: Serine/threonine-protein kinase DCLK1 (Homo sapiens, UniProt O15075);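 further: affinity for DCLK1 (listed as DCAMKL1) measured as one member of a kinome-wide kinase profiling panel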
# Serine/threonine-protein kinase DCLK1, sequence (O15075 whole entry): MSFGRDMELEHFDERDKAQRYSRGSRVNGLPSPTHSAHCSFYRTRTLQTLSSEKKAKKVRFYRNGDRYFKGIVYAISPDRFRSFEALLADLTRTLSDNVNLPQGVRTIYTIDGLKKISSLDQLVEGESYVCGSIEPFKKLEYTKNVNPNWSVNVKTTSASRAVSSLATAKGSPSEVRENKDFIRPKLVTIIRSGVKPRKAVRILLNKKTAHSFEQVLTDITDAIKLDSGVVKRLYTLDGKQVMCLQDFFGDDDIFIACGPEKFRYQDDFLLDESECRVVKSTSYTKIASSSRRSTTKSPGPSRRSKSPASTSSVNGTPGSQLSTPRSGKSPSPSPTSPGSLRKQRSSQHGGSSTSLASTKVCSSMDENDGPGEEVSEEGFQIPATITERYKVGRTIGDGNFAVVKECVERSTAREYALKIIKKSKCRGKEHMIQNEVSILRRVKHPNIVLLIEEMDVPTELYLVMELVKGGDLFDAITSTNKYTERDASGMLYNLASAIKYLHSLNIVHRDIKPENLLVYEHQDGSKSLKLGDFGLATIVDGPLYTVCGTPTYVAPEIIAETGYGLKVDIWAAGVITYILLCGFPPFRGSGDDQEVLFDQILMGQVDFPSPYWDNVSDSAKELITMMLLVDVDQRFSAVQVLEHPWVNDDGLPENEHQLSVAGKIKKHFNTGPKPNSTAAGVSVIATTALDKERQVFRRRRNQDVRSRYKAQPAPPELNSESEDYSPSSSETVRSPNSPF
smiles,measurement,setting,value
C=Cc1cnn(Cc2cccc3ccccc23)c(=O)c1C(C#N)c1ccccc1 (stereo not drawn),IC50,[1],2.55 µM (active)
same,IC50,[2],2.55 µM (active)
Cc1cc(Nc2cc(N3CCN(C)CC3)nc(Sc3ccc(NC(=O)C4CC4)cc3)n2)[nH]n1 [TOZASERTIB],Ki,[3],> 7.94 µM (inactive)
same,Ki,[4],2.51 µM (active)
same,Ki,[5],> 3.16 µM (inactive)
same,Ki,[6],> 3.98 µM (inactive)
same,Ki,[7],1.26 µM (active)
same,Ki,[8],> 10 µM (inactive)
same,Ki,[9],> 1.58 µM (inactive)
same,Ki,[10],3.16 µM (active)
same,Ki,[11],0.158 µM (active)
same,Ki,[12],> 3.98 µM (inactive)
same,Ki,[13],> 3.98 µM (inactive)
same,Ki,[14],> 1.58 µM (inactive)
same,Ki,[15],> 7.94 µM (inactive)
same,Ki,[16],> 0.501 µM (inactive)
same,Ki,[17],> 3.98 µM (inactive)
same,Ki,[18],> 10 µM (inactive)
same,Ki,[19],> 1.58 µM (inactive)
same,Ki,[20],> 5.01 µM (inactive)
same,Ki,[21],> 5.01 µM (inactive)
same,Ki,[22],> 7.94 µM (inactive)
same,Ki,[23],> 6.31 µM (inactive)
same,Ki,[24],> 2.51 µM (inactive)
same,Ki,Focal adhesion kinase 1,> 6.31 µM (inactive)
same,Ki,[25],> 6.31 µM (inactive)
same,Ki,[26],> 7.94 µM (inactive)
same,Ki,SRSF protein kinase 1,> 7.94 µM (inactive)
same,Ki,[27],> 1.58 µM (inactive)
same,Ki,[28],> 7.94 µM (inactive)
same,Ki,[29],> 6.31 µM (inactive)
same,Ki,[30],> 2 µM (inactive)
same,Ki,[31],> 3.98 µM (inactive)
same,Ki,[32],0.2 µM (active)
same,Ki,[33],> 7.94 µM (inactive)
same,Ki,[34],0.316 µM (active)
same,Ki,[35],> 2.51 µM (inactive)
same,Ki,[36],> 10 µM (inactive)
